Data from US9040485B2, “Synthetic analogues of neural regeneration peptides” (Curonz Holdings Company Limited, priority 2007, dated 2015).
“Also recorded” adds a separate entry of the source. Where a SMILES comes first, the peptide text is derived from it. [ ]: non-standard residue; d: D form. Aib = CC(C)(N)C(=O)O

Key:
[1] = tested on: cerebellar microexplants; assay: Neuronal survival of cerebellar microexplants exposed to the neurotoxin 3-NP (cells having neurites counted); type: cell-based, Wistar rat; details: for neuroprotection after exposure to 3-NP, larger set of data: study of 6 in each group, FIG. 4
Experimental: (§1) Laminated cerebellar cortices of the two hemispheres were explanted from a P3, P4, P7 or P8 Wistar rat, cut into small pieces in GBSS with 0.65% D(+)glucose solution, and triturated by a 0.4 mm gauge needle and subsequently pressed through a 125 μm pore size sieve. The obtained microexplants were centrifuged (60×g) 2 times for a medium exchange into serum-free BSA-supplemented START V-medium (Biochrom). Finally, the microexplants were reconstituted in 500 μl STARTV-medium. For culturing, 38 μl of the cell suspension was incubated for 1 hour on a poly-D-lysine-coated cover slip in a 35 mm Petri dish under an atmosphere comprising 5% CO2 in air and 100% humidity at 34° C. Subsequently, the injuring toxins (as described below), NRP analogues and 1 ml of STARTV-medium were added, and the cultures were evaluated after 2-3 days of culture.
(§2) General methods for toxicological and drug administration experiments were designed such that 1/100 parts of toxin and neuroprotective drug were administered simultaneously to the freshly prepared cerebellar microexplants. Glutamate was prepared as a 50 mM stock solution in MilliQ water while 50 mM 3-nitropropionic acid (3-NP) was pH-adjusted (pH 6.8-7.2) in MilliQ water. The concentrations of the oxidative stress inducing toxin, 3-nitropropionic acid (3-NP), and the excitotoxin, glutamate, in the assay were at concentrations of 0.5 mM each. Lyophilized NRP peptides were reconstituted in PBS or 100 μg/ml human transferrin as a 10 μM stock solution. Subsequently, serial dilutions were made. Cerebellar microexplants were cultivated for 48-72 hours at 34° C., 5% CO2 in air and 100% humidity before they were fixed by increasing amounts of paraformaldehyde (0.4%, 1.2%, 3% and 4%—each treatment 2-3 min).
Using the toxins described above, cerebellar explants were exposed for 24 hours, at the beginning of culturing to dilutions of NRP (survival assay) or NRP and 0.1 μM BrdU (proliferation assay). Subsequently, 80% of the medium was changed without addition of new toxins and NRPs. The cerebellar cultures were fixed as described above after 3 days in vitro. The detection of the incorporated BrdU level is performed as described previously.
For statistical analysis of survival, four fields (each field having an area of 0.65 mm^2) of each fixed cerebellar culture with the highest cell densities were chosen, and cells displaying neurite outgrowth were counted (survival assay).
We exposed cell cultures to vehicle alone (open column) the neurotoxin 3-NP alone (shaded column) to 3-NP plus different concentrations of SEQ ID NO:5 (hatched columns) or to 3-NP plus different concentrations of a non-substituted NRP, SEQ ID NO:1 (dark shaded column). We then counted the numbers of cells having neurites as an indicator of neuronal cell survival.

[2] = tested on: cerebellar explants; assay: Storage stability: peptide stored 9 weeks at −20° C. or −4° C., then tested for neuroprotection against 3-NP in cerebellar explants; type: cell-based, Wistar rat; details: for stability in storage (retention of neuroprotective activity): 9 weeks, −4° C. compared with −20° C.; for neuroprotective effect against 3-NP after storage at −4° C.: stored 9 weeks at −4° C.; for neuroprotective effect against 3-NP after storage at −4° C. / neuroprotective effect against 3-NP after storage at −20° C.: four concentrations 10^−13 M to 10^−10 M; for neuroprotective effect against 3-NP after storage at −20° C.: stored 9 weeks at −20° C.
Experimental: as §1, §2
To determine the stability of NRPs of this invention in storage, we carried out a series of studies using SEQ ID NO:1. In this study, we synthesized SEQ ID NO:1 and then stored the peptide at temperatures of either −20° C. or −4° C. for nine (9) weeks. We then tested the NRP for efficacy in protecting cerebellar neurons against the neurotoxic effect of 3-NP as described above. Cerebellar explants were treated with vehicle alone (open column), the neurotoxic agent 3-NP alone (light stippled column), or 3-NP plus four concentrations of SEQ ID NO:1 that had been stored for 9 weeks at −20° C., or at −4° C.
In this study, we determined the stability of a substituted NRP, SEQ ID NO:5, in different storage conditions and at different concentrations as with Example 3 above. We synthesized SEQ ID NO:5 and then stored the peptide for 9 weeks at a temperature of either −20° C. or −4° C. We then tested the efficacy of SEQ ID NO:5 in decreasing the neurotoxic effect of 3-NP as described in Examples 2 and 3 above.

[3] = tested on: SOD-1 mutant (ALS) transgenic mice; assay: Survival of SOD-1 mutant (ALS) transgenic mice, Kaplan-Meier; type: in vivo
Description: In this series of studies, we examined the effects of SEQ ID NO:5 on mice having a genetic defect (SOD-1) that produces a motor neuron disease similar to that in humans with ALS Animals with this disorder show a progressive loss of motor coordination over time, and ultimately die prematurely of the disease. This animal system is useful in studying effects of agents potentially useful in treating ALS in human beings. Thus, results obtained are highly predictive of results obtained in humans with ALS.
Mice were randomly allocated to receive either vehicle or SEQ ID NO:5 from the point of disease onset onwards.
SEQ ID NO:5 treatment (40 μg/kg, given 1/day, i.p. (FIG. 8A) or 0.4 μg/kg, given 1/day, i.p. (FIG. 8B)) was started at the day of onset of the disease.

[4] = tested on: rats with peripheral neuropathy induced by pyridoxine; assay: Pyridoxine-induced peripheral neuropathy, precision beam walk motor deficit score; type: in vivo; details: for motor deficits (beam walking score) versus vehicle: Experiment I: pyridoxine 800 mg/kg/day 8 days, four days after cessation of pyridoxine
Experimental: Male Sprague-Dawley rats were used and were weighed 278-349 g at the commencement of intoxication with pyridoxine chloride. Before intoxication, rats were habituated to walk across a beam at daily intervals for a week.
Experiment I: Rats were administered 400 mg/kg pyridoxine chloride dissolved in sterile distilled water adjusted to neutral pH intraperitoneally (i.p) twice daily for 8 days and concurrently the peptide having the sequence SEQ ID NO:5 was administered i.p. for at total of 10 days.
Experiment II: Rats were administered a higher dose of pyridoxine (1200 mg/kg/day) over a shorter period of time. Pyridoxine chloride dissolved in sterile distilled water adjusted to neutral pH was administered i.p. to the rats at a dose of 600 mg/kg twice daily for 4 days. Concurrently the peptide having the sequence SEQ ID NO:5 was administered for 4 days. On day 5, rats were tested for motor deficits.
Motor deficits after pyridoxine intoxication and effects of SEQ ID NO:5 were analyzed using a precision beam walk. Seven subsequent foot steps across the 1.5 m long beam were videotaped and according to the positioning of the foot tarsus, these steps were scored between 1 to 4 (1—hind leg tarsus above the beam median; 2—tarsus was touching the upper half of beam medium; 3-tarsus was touching the lower half of beam median and 4—tarsus below the beam median). The score results of all seven steps were added together. A score of 30 was given if the animal was only able to stand on the beam but was unable to walk. In the event of inability to stand on the beam a score of 32 was awarded.
Experiment I: The two concentrations tested for SEQ ID NO:5 were 40 ng/kg/day and 4 μg/kg/day.
Experiment II: Saline and SEQ ID NO:5 at a dose of 4 μg/kg/day were tested.
Motor deficit data were assessed by two-way analysis of variance and Bonferroni post-hoc test. Statistical significance was concluded if p<0.05 between drug treatment cohorts and vehicle treatment.

[5] = tested on: mouse model of experimental autoimmune encephalitis (EAE); assay: MOG-induced experimental autoimmune encephalitis (EAE) model of multiple sclerosis, clinical score of neurological impairment; type: in vivo, mice, strain C57B1/6J; details: 0.1 μg peptide/animal (4.16 μg/kg) i.p. daily for 14 days from day 17 after MOG-immunization; outcome 37 days after first treatment; p<0.01 versus treatment day 1 score; FIG. 5

## NH2-G^1RRAAPGRANG^11-NH2 (H-GRRAAPGRANG-NH2) [SEQ ID NO: 6]
[1]; 3-NP
  neuroprotection in in vitro model of neural toxicity induced by 3-NP: neuroprotective

## C[C@H](NC(=O)[C@H](CCCNC(=N)N)NC(=O)[C@H](CCCNC(=N)N)NC(=O)CN)C(=O)N[C@@H](C)C(=O)N1CCC[C@H]1C(=O)NCC(=O)N[C@@H](CCCNC(=N)N)C(=O)NC(C)(C)C(=O)NCC(=O)NCC(N)=O [SEQ ID NO:5, NH2-G^1RRAAPGR-Aib-GG^11-NH2] (H-GRRAAPGR[Aib]GG-NH2)
[1]; 3-NP, FIGS. 1 and 4
  neuroprotection compared with the unsubstituted NRP: more neuroprotective than the unsubstituted NRP
[1]; FIG. 1, n=4
  concentration of maximal effect on 3-NP-induced neurotoxicity: about 100 fM
  threshold concentration for decrease of 3-NP-induced neurotoxicity: below 1 fM
[1]; different concentrations, 0.5 mM 3-NP, p<0.001, n=4 each, FIG. 1
  decrease of 3-NP-induced neurotoxicity (cells having neurites): decreased 3-NP-induced neurotoxicity in a concentration dependent fashion
[1]
  neuroprotection after exposure to 3-NP, larger set of data: protect neurons from dying
[2]
  stability in storage (retention of neuroprotective activity): not statistically different; also recorded: stable under storage conditions
  neuroprotective effect against 3-NP after storage at −4° C.: retained its neuroprotective effect
  neuroprotective effect against 3-NP after storage at −20° C.: neuroprotective effects similar to those found for SEQ ID NO:1
[3]; Study 1, 40 μg/kg 1/day i.p., vehicle all dead by day 143, FIG. 8A
  longest survival of treated mice: up to 156 days
[3]; Study 1, 40 μg/kg 1/day i.p., vehicle day 120, FIG. 8A, p<0.01
  day at which treated mice began dying: 131 days
[3]; Study 2, 0.4 μg/kg 1/day i.p., vehicle all dead at day 154, FIG. 8B
  longest survival of treated mice: up to 189 days
[3]; Study 2, 0.4 μg/kg 1/day i.p., vehicle day 120, FIG. 8B
  day at which treated mice began to die: 125 days
[3]; two studies, 40 μg/kg or 0.4 μg/kg 1/day i.p. from disease onset, FIGS. 8A and 8B
  lifetime of mice suffering from the ALS-like disorder: significant extension of lifetime
[4]; Experiment I: peptide 4 μg/kg/day, day 16 after start of pyridoxine-intoxication, p<0.05, FIG. 6
  motor deficits (beam walking score) versus control group: significantly less motor deficits than the control group
[4]; peptide 40 ng/kg/day i.p. 10 days, p<0.05, FIG. 6
  motor deficits (beam walking score) versus vehicle: attenuated motor deficits
[4]; peptide 4 μg/kg/day i.p. 10 days, p<0.01, FIG. 6
  motor deficits (beam walking score) versus vehicle: attenuated motor deficits
[4]; Experiment II: pyridoxine 1200 mg/kg/day 4 days, peptide 4 μg/kg/day 4 days, day 5, p<0.001, FIG. 7
  motor deficits (beam walking score) versus control group: highly significantly attenuation of motor deficits
[4]; rats, 4 μg/kg/day
  tolerability: well tolerated

## H-GR[dR]AAPGRAGG-NH2 [SEQ ID NO: 8]
[1]; 3-NP
  neuroprotection in in vitro model of neural toxicity induced by 3-NP: neuroprotective

## AcNH-RRAAPGRAGG^11-NH2 (Ac-RRAAPGRAGG-NH2) [SEQ ID NO: 7]
[1]; 3-NP
  neuroprotection in in vitro model of neural toxicity induced by 3-NP: neuroprotective

## NH2-G^1RRAAPGRAGG^11-NH2 (H-GRRAAPGRAGG-NH2; listed as Homo sapiens) [SEQ ID NO:1, un-substituted comparator, reference compound]
[1]; peptide at 10 fM or 1 pM, 0.5 mM 3-NP, p<0.001, n=4, FIG. 1
  decrease of neurotoxic effects of 3-NP (cells having neurites): significantly decreased the neurotoxic effects of 3-NP
[1]
  neuroprotection after exposure to 3-NP, larger set of data: protect neurons from dying
[2]
  stability in storage (retention of neuroprotective activity): loses activity over the 9-week period
  neuroprotective effect against 3-NP after storage at −4° C.: little decrease in neurotoxic effect of 3-NP
  neuroprotective effect against 3-NP after storage at −20° C.: neuroprotective effects at all concentrations tested

## NH2—REGRRDAPGRAGG-NH2 (H-REGRRDAPGRAGG-NH2) [SEQ ID NO: 12]
[5]
  therapeutic effect on EAE clinical score (severity of motoric impairment): significant therapeutic effect
